The subject of assay [1] is CTP:phosphocholine cytidylyltransferase (CCT). Nature of the assay: CCT assay in rat brain cortical homogenates with liposomes. The format is biochemical. Particulars: DOPC liposomes, 200 μM; for CCT activity: 8.9±1.0 without lipid.
The test system of assay [2] is rat hippocampal neurons. Particulars: 50 μM PDMP; cited from earlier work.
In assay [3] the test system is CTP:phosphocholine cytidylyltransferase (CCT). Nature of the assay: CCT assay in homogenates of treated hippocampal neurons. The format is cell-based, rat. Particulars: 50 μM PDMP. As to the method: (§1) Neurons from individual cover slips were washed twice with ice-cold phosphate-buffered saline, and cells removed by scraping into 300 μl of buffer containing 50 mM imidazole, 2 mM EDTA, 150 mM KCl, 6 mM ADP, 0.2 mM phenylmethylsulfonylfluoride, 1 μg/ml pepstatin and 1 μg/ml leupeptin. After brief sonication, an aliquot was removed for DNA determination and 100 μl was used for the CCT assay.
CCT was assayed as described (Weinhold P A and Feldman D A. 1992. Choline-phosphate cytidylyltransferase. Methods Enzymol. 209, 248-258), with some minor modifications. The assay was performed in a final volume of 200 μl containing 1.6 mM phosphorylcholine/0.25 μCi [^14C]methyl phosphorylcholine, 3 mM CTP, 12 mM magnesium acetate, and DOPC liposomes with or without oleic acid and GicCer or GalCer, as indicated in the figure legends. Liposomes were prepared by sonicating resuspended lipids in the assay buffer at room temperature for 3 min using a sonicator (Sonics & Materials Inc., Newtown, Conn.) fitted with a micro-tip probe set to 750 W output, using 25% of the maximal amplitude and with pulsations of 9.0 sec every 9.2 sec, which gave a translucent liposome preparation with no precipitates. The final concentration of DOPC and oleic acid in the liposomes was 500 μM each. […]

For assay [4] the test system is unchanged. In words: CCT assay in hippocampal neuron homogenates with substance added to the assay mixture. It is filed as biochemical, rat. To be noted: 0.5 mM DOPC/0.5 mM oleic acid/0.3 mM sphingolipid or lyso-sphingolipid; 8-day-old neurons. The protocol:
as §1
(§2) CCT was assayed as described (Weinhold P A and Feldman D A. 1992. Choline-phosphate cytidylyltransferase. Methods Enzymol. 209, 248-258), with some minor modifications. The assay was performed in a final volume of 200 μl containing 1.6 mM phosphorylcholine/0.25 μCi [^14C]methyl phosphorylcholine, 3 mM CTP, 12 mM magnesium acetate, and DOPC liposomes with or without oleic acid and GicCer or GalCer, as indicated in the figure legends. Liposomes were prepared by sonicating resuspended lipids in the assay buffer at room temperature for 3 min using a sonicator (Sonics & Materials Inc., Newtown, Conn.) fitted with a micro-tip probe set to 750 W output, using 25% of the maximal amplitude and with pulsations of 9.0 sec every 9.2 sec, which gave a translucent liposome preparation with no precipitates. The final concentration of DOPC and oleic acid in the liposomes was 500 μM each. The reaction was terminated after 25 min at 37° C. by addition of 200 μl of 150 mM phosphorylcholine in 10% trichloroacetic acid. CDP-choline was recovered by addition of 2 ml of 6% charcoal in water (w/v). After 30 min at room temperature the charcoal suspension was washed 4 times with water and centrifuged at 1,000 gav for 10 min. The aqueous supernatants were removed and CDP-choline was eluted from the charcoal with 3 washes of water/ethanol/28% NH4OH (116:188:11, v/v/v). Eluates were pooled and evaporated to dryness under N2. Phosphorylcholine and CDP-choline were added to the tubes and the samples separated by TLC using 0.9% NaCl/methanol/28% NE4OH (50:70:5, v/v/v) as the developing solvent. Metabolites were identified by iodine, and the CDP-choline spot was scraped into scintillation vials for scintillation counting.
CCT activity was assayed in homogenates prepared from 8-day-old normal rat hippocampal neurons as described herein above. The reaction mixture comprised 0.5 mM DOPC/0.5 mM oleic acid/0.3 mM sphingolipid or lyso-sphingolipid. CCT activity with each sphingolipid or lyso-sphingolipid was measured twice. Basal CCT activity differed by ˜20% between the two experiments; however, the extent of activation or inhibition of CT activity was similar for each sphingolipid and lyso-sphingolipid.

Assay [5] has the same test system. In words: CCT assay in rat brain cortical homogenates with liposomes. The format is biochemical. As to the method: as §2
When CCT was assayed in rat or mouse brain cortical homogenates (1 g tissue/12.5 ml of buffer), the homogenate was first centrifuged (200 gav, 20 min) to remove cell debris. The homogenate was diluted with assay buffer to give a final concentration of 200 μg protein/ml. CCT activity was also assayed using purified rat brain CCT (see below).

For assay [6], the system named is purified rat brain CCT. Nature of the assay: CCT assay with purified rat brain CCT and liposomes. The format is biochemical. The protocol:
as §2
Rat brain CCT was purified by a method similar to that described for rat liver (Weinhold and Feldman, supra; Weinhold P A Rounsifer M E and Feldman D A. 1986. The purification and characterization of CTP:phosphorylcholine cytidylyltransferase from rat liver. J Biol Chem 261:5104-5110). Rat brains (11 g) were isolated from 8-10-week old rats and homogenized in 51 ml of buffer A (50 mM Tris-HCl pH 7.4, 150 mM NaCl, 1 mM EDTA, 2 mM dithiothreitol, 0.025% (w/v) sodium azide, 1 mM phenylmethylsulfonylfluoride). Brain cytosol was prepared by collecting the supernatants obtained after two sequential centrifugation steps at 10,000 gav for 20 min, and 100,000 gav for 1 h. The protein concentration of the cytosol was adjusted to 6 mg/ml with buffer A, egg yolk PC/oleic acid liposomes were added, followed by acid precipitation. The precipitate was re-suspended in 54 ml of buffer A containing 20 mM n-octyl-β-D-glucopyranoside and 1 mM phenylmethylsulfonylfluoride for 30 min at room temperature. After centrifugation (10,000 gav, 20 min), the n-octyl-β-D-glucopyranoside extract was loaded onto a DEAE-sepharose CL-6B column that had been previously packed and equilibrated with 300 ml of buffer A. All elution procedures were performed using a flow rate of 40 ml/h. The column was successively washed with 100 ml of buffer A, 300 ml of a gradient of 150 mM to 300 mM NaCl in buffer B (50 mM Tris-HCl pH 7.4, 1 mM EDTA, 2 mM dithiothreitol, 0.025% (w/v) sodium azide), and 150 ml of buffer B containing 300 mM NaCl. CCT was eluted with 70 ml of buffer B containing 400 mM NaCl and 50 mM n-octyl-β-D-glucopyranoside.
The fractions containing CCT activity were pooled, diluted with 4 volumes of buffer A and loaded onto a HTP gel hydroxyapatite column (BioRad) that had previously been equilibrated with 200 ml of buffer A. Elutions were performed at flow rates of 20 ml/hour. […]

The mark [7] stands for this setting: liposomes of DOPC and oleic acid.

`CCCCCCCCCCCCCC=CC(O)C(COC1OC(CO)C(O)C(O)C1O)NC(=O)CCCCCCC` (centres unmarked) [C8-GalCer]: the CCT activity in assay [1] is 9.1±0.8 nmol/min/mg of protein.

As for `CCCCCCCCCCCCC/C=C/[C@@H](O)[C@H](COC1OC(CO)C(O)C(O)C1O)NC(=O)CCCCCCC` (some centres unmarked) [C8-GlcCer], in assay [1], the CCT activity is listed as 25.9±4.4 nmol/min/mg of protein.

As for `CCCCCCCCCC(=O)N[C@H](CN1CCOCC1)[C@H](O)c1ccccc1` [PDMP, D-threo-1-phenyl-2-decanoyl-amino-3-morpholino-1-propanol], in assay [2], the “rate of axonal growth” value was “reduction”. The “CCT activity after treatment of neurons” value in assay [3] is “significant reduction”.

With `CCCCCCCCCCCCC/C=C/[C@@H](O)[C@@H](N)CO[C@@H]1O[C@H](CO)[C@H](O)[C@H](O)[C@H]1O` [galactosylsphingosine], the “effect on CCT activity” value in assay [4] is listed as “No significant effect”. Besides, the “effect of exogenously-added lipid on CCT activity” value (shortened to “effect of exogenously-added lipid”) in assay [5] is listed as “no elevation of activity”.

For `CCCCCCCCCCCCC/C=C/[C@@H](O)[C@@H](N)CO[C@@H]1O[C@H](CO)[C@@H](O)[C@H](O)[C@H]1O` [glucosylsphingosine], the “effect on CCT activity” value in assay [4] is “No significant effect”. In assay [5], the “effect of exogenously-added lipid” value is “no elevation of activity”.

For the molecule `CCCCCCCCCCCCC/C=C/[C@@H](O)C(N)CO[C@H]1O[C@H](CO)[C@@H](O[C@@H]2O[C@H](CO)[C@H](O)[C@H](O)[C@H]2O)[C@H](O)[C@@H]1O` (some centres unmarked) [lactosylsphingosine], the “effect on CCT activity” value in assay [4] is recorded as “inhibited”.

Regarding `CCCCCCCCCCCCC/C=C/[C@@H](O)[C@@H](N)COP(=O)([O-])OCC[N+](C)(C)C` [lysosphingomyelin], the “effect on CCT activity” value in assay [4] is reported as “inhibited”.

As to `CCCCCCCC/C=C\CCCCCCCC(=O)O` [oleic acid], in assay [6] (DOPC/oleic acid liposomes), the “CCT activity in DOPC/oleic acid liposomes versus DOPC liposomes alone” value is given as ~10 fold.

On to `CCCCCCCCCCCCC/C=C/[C@@H](O)[C@@H](N)CO` [sphingosine], for which the “effect on CCT activity” value in assay [4] is reported as “inhibited”.

Consider ceramide, for which, in assay [4], the “effect on CCT activity” value is on record as “inhibited”. Further, in assay [5], the “effect of exogenously-added lipid” value was “did not increase CCT activity”.

galactosylceramide [GalCer]: the “effect on purified CCT” value in assay [6] (DOPC liposomes) is recorded as “no significant effect”. For the same molecule, the “effect on CCT activity” value in assay [6] (DOPC/oleic acid liposomes) was “no significant effect”; in assay [4], “no significant effect”; in assay [5] (DOPC liposomes), “did not affect”; in assay [5] (setting [7]) it was “had no effect”.

For glucosylceramide [GlcCer], the “activation of CCT at the lowest concentration” value in assay [6] (DOPC liposomes, 2.5 mole percent) was “significant activation”. Moreover, the “maximal activation of CCT” value in assay [6] (DOPC liposomes, 10 mole percent) is on record as 3-4 fold. For the same molecule, the “effect on CCT activity” value in assay [6] (DOPC/oleic acid liposomes) is on record as “small but significant increase”; in assay [4], “activated”; in assay [5] (setting [7]), “increased CCT activity”. Further, the “increase in the rate of CDP-choline synthesis” value in assay [1] is > 2 fold.

With lactosylceramide, in assay [4], the “effect on CCT activity” value is “inhibited”. For the same molecule, in assay [5], the “effect of exogenously-added lipid” value is recorded as “did not increase CCT activity”.

For the molecule sphingomyelin [SM], in assay [4], the “effect on CCT activity” value is listed as “inhibited”. Moreover, the “effect of exogenously-added lipid” value in assay [5] is on record as “did not increase CCT activity”.

These data come from US7429460B2, “Methods of screening for inhibitors of phospholipid synthesis related to glycolipid-storage diseases” (Yeda Research and Development Co., Ltd., priority 2003, dated 2008).
